Reference: US20080268492A1, “Methods for Determining Optimal Techniques for Vitrification of Isolated Cells” (THE CURATORS OF THE UNIVERSITY OF MISSOURI, priority 2007, published 2008)
Read-outs that look alike come from different tables or passages of the source.

How the values were obtained:
[1] = test system: mature (MII) human oocytes
Protocol: Measurements of oocyte permeability were conducted at different temperatures on an inverted microscope (Leica DMIRB, China). Perfusion of the oocytes was performed as previously described and validated in the laboratory Oocytes were placed in 20 μl drops of Hepes-HTF (Irvine Scientific) with 10% SSS in a petri dish covered with mineral oil (Vitrolife; Englewood, Colo., USA) to prevent evaporation. An initial photograph was taken of the oocyte in order to calculate the initial volume. […] When the perfusate merged with the 20 μl drop of base medium, photographs of the oocytes were taken at regular intervals.
The oocytes were held in place during the experiment using a glass holding pipette (Humagen Holding MPH-MED-30, I.D.-20 μm, O.D.-95˜120 μm) and micromanipulators (#RI MODEL SAS11/2-E, Integra Research Instruments, UK). For temperatures lower than ambient, a 35 mm Petri dish (Falcon 35-1008) was placed in an aluminum chamber that was cooled with circulating liquid via a cooling bath (Fisher model 9109) and pumped through the aluminum chamber using polymer tubing. The bottom of the dish was wrapped in aluminum foil and a square hole was cut in the foil to facilitate viewing the oocyte. This was performed so the dish would fit snugly in the chamber to facilitate heat transfer from the chamber to the dish. The temperature in the cooling bath was set to either −2° C. or +7° C. for the 2 cold temperatures. The actual temperature of the media in the dish was warmer than this due to heat exchange of the fluid as it circulated through the tubing and chamber.
For the third treatment, oocyte permeability was measured at ambient temperature (˜25° C.) where the perfusion took place in a 50 mm Petri dish (Falcon 35-1006) placed on the microscope stage with no heating or cooling. Finally, the warmest temperature was attained in a similar fashion but the temperature of the media was raised by using a microscope stage warmer set to 39° C. Variations in temperature of the media occurred due to day-to-day fluctuations in temperature in the laboratory. However, the actual temperature of the media for each replicate during the experiment was measured using a type-T (copper/constantan) thermocouple and an electronic thermometer (model 51 II, Fluke Corporation, Everett, Wash. USA).
After the experimental run, the oocyte was released from the holding pipette on the micromanipulator and the temperature of the medium was measured such that the thermocouple was visible in the microscope field of view, ensuring that the temperature was recorded at the exact location of the oocyte. […] The exact time of these transitions was recorded during each replication and was accounted for during the calculations to estimate the permeability parameters. […]

mouse oocytes = conditions: cited from earlier work
bovine oocytes = conditions: 4 or 5.5 mol/L EG in a single step; cited from earlier work
Rhesus macaque oocytes = conditions: single-step addition and removal; cited from earlier work
[2] = cited from earlier work; for concentration required to maintain a vitreous state during slow warming: aqueous solution with this compound as the only solute; for total solute required to maintain a vitreous state during cooling and warming: prior analysis
[3] = Differential scanning calorimetry of EG/sucrose/saline solutions (vitreous state during cooling and warming); type: physicochemical; conditions: for total concentration of the solution necessary to prevent crystallization during warming: cooling 100° C/min, warming 10° C/min; for DSC thermogram during warming: sucrose 0.3 molal with EG
Protocol: This experiment was designed to determine the amount of EG necessary to maintain an ice-free (i.e. vitreous) state during cooling to cryogenic temperatures ([…]; below the glass transition temperature of these solutions) and warming, when the sucrose concentration ranged from 0.1 to 1.1 molal (mol/kg; equivalent to 0.053 to 0.53 molar (mol/L)). In studies of the physical properties of solutions, components of the solutions are usually measured by weight, not volume. […] Furthermore, concentrations are usually reported in weight fractions (weight percent (w/w, or wt %)). These conventions were used in this experiment and references was made to the equivalent molar concentrations when comparing the results to previously published studies.
A Diamond Differential Scanning Calorimeter (DSC; Perkin-Elmer Waltham, Mass., USA) outfitted with an autosampler and CryoFill liquid nitrogen cooling system was employed for the thermal analysis. The solutions were composed of water (5 g) and NaCl (0.0045 g) to which various amounts of sucrose and EG were added. For this experiment, spectrophotometric grade (>99%) EG was utilized. All components were weighed on an analytical balance. Errors between the target and actual weight percent were less than 0.1% in all instances. To test the vitrification properties of the solutions, 5 μl (˜0.0055 grams) were loaded into standard 10 μl aluminum DSC pans (Perkin-Elmer Part # BO14-3015), and the pans were hermetically sealed. Embryo-grade water and HPLC-grade (>99.9% purity) cyclohexane were also run as calibration standards.
Analyses were conducted at a cooling rate of 100° C./min and a warming rate of 10° C./min to be consistent with previous studies. […] Random noise was estimated by determining the standard deviation of the actual signal from the expected value from the polynomial fit. When an apparent crystallization peak followed by a melting peak in the expected temperature range was noted, and the maximum point on the melting peak was beyond three standard deviations from the expected value, it was classified as a thermal event. Only when three independent solutions confirmed the absence of crystallization and melting was the solution classified as having achieved and maintained a vitreous state throughout the cooling and warming procedure.

OCCO [EG, ethylene glycol]
Lp (hydraulic conductivity) in the presence of EG ([1]; 6.7° C): 0.15 μm/(min·atm)
Lp (hydraulic conductivity) in the presence of EG ([1]; 35.7° C): 1.17 μm/(min·atm)
activation energy for Lp ([1]; Arrhenius plot, 95% CI 13.19 to 15.65): 14.42 kcal/mol
activation energy for Ps ([1]; Arrhenius plot, 95% CI 19.49 to 22.91): 21.20 kcal/mol
effect on development compared to untreated oocytes (mouse oocytes; 6 mol/L EG for 5 minutes): no effect on development
reduction of developmental potential (mouse oocytes; 7 mol/L EG, 2-step exposure): 30%
mean blastocyst development rate (mouse oocytes; 8 mol/L EG, exposure less than 1 minute, controls ~62%): ~50%
effect on developmental potential (bovine oocytes): significant reduction
EG concentration causing membrane damage (Rhesus macaque oocytes): ≥ 3 mol/L
concentration required to maintain a vitreous state during slow warming [2]: ~59 wt %
EG concentration necessary to maintain a vitreous state ([2]; cooling and warming at the DSC rates (100 and 10° C/min)): 59 wt %
EG concentration that should maintain a vitreous state ([2]; warming rate on the order of 1×10^3° C/min): 50 wt %
EG concentration that should maintain a vitreous state ([2]; warming rate on the order of 1×10^4° C/min): 48 wt %

OC[C@H]1O[C@@](CO)(O[C@H]2O[C@H](CO)[C@@H](O)[C@H](O)[C@H]2O)[C@@H](O)[C@@H]1O [sucrose]
total concentration of the solution necessary to prevent crystallization during warming ([3]; 0.1 mol/kg sucrose with EG in saline): 59 wt %
total concentration of the solution necessary to prevent crystallization during warming ([3]; 0.3 mol/kg sucrose with EG in saline): 59 wt %
total concentration of the solution necessary to prevent crystallization during warming ([3]; 0.5 mol/kg sucrose with EG in saline): 59 wt %
total concentration of the solution necessary to prevent crystallization during warming ([3]; 0.7 mol/kg sucrose with EG in saline): 60 wt %
total concentration of the solution necessary to prevent crystallization during warming ([3]; 0.9 mol/kg sucrose with EG in saline): 61 wt %
total concentration of the solution necessary to prevent crystallization during warming ([3]; 1.1 mol/kg sucrose with EG in saline): 61 wt %
DSC thermogram during warming ([3]; total solute 55% weight): crystallization and melting peaks
DSC thermogram during warming ([3]; total solute 59 weight %): no evidence of crystallization and melting
concentration required to maintain a vitreous state during slow warming [2]: > 70 wt %
total solute required to maintain a vitreous state during cooling and warming ([2]; sucrose 0 mol/kg with EG): 59 wt %
total solute required to maintain a vitreous state during cooling and warming ([2]; sucrose 0.1 mol/kg with EG): 60 wt %
total solute required to maintain a vitreous state during cooling and warming ([2]; sucrose 0.5 mol/kg with EG): 61 wt %
total solute required to maintain a vitreous state during cooling and warming ([2]; sucrose 1.0 mol/kg with EG): 65 wt %
